Square brackets hold non-standard residues; d marks the D form. Peptide text beside a SMILES is read from it. * marks the point of attachment. Methacryloyl = C=C(C)C(=O)*; Ahx = NCCCCCC(=O)O
Legend:
Human liver cathepsin B = molecular target: T1, Human liver cathepsin B (Homo sapiens, UniProt P07858); assay: Cathepsin B cleavage assay; assay type: biochemical; settings: for cathepsin B cleavage of FKFL linker and peptide release: RP-HPLC and MS
T1 construct: purchased Enzo Life Sciences; host or cells: human liver
Procedure: Human liver cathepsin B (Enzo Life Sciences) was activated for 15 minutes in a solution of 0.158 mg/mL cathepsin B, 20 mM DTT, and 10 mM EDTA at 37° C. Peptide or polymer was then solubilized in reaction buffer (10 mM phosphate, 1 mM EDTA, pH 6.6, 37° C.) and added to the enzyme solution for a final concentration of 1.28 μg/mL cathepsin B and […] peptide/polymer. […] Cleavage of the polymers was also visualized by SDS-PAGE on 8-16% Tris-Glycine Gels (Bio-Rad). For protein gel analyses, reactions were conducted at 3× concentration and 160 μg of polymer was loaded per well.

caspase 3/7 = settings: 10 μM, 72 hours
Procedure: Caspase 3/7 activity was measured using a SensoLyte Homogenous AMC Caspase-3/7 Assay Kit (AnaSpec). SKOV3 cells were plated in a black 96-well plate with a clear bottom at a density of 7,000 per well and then treated with polymer (0-10 μM) for 72 hours. Assay reagents were mixed with cell culture medium as per the manufacturer's instructions, incubated for 24 hours, and fluorescence (ex/em=380 nm/500 nm) was measured using a plate reader. Percent caspase 3/7 activity was calculated relative to untreated cell cultures.

[1] = system: SKOV3 human ovarian cancer cells; settings: 10 μM, 72 hours
Procedure: Induction of apoptosis was measured with a FITC Annexin V/Dead Cell Apoptosis Kit (Invitrogen) as per the manufacturer's instructions. SKOV3s cells were plated in 6-well plates at a density of 120,000 cells per well and treated with 10 μM polymer solutions for 72 hours. After 72 hours, cells were trypsinized, rinsed in PBS, centrifuged, stained with FITC-annexin V, and analyzed on a BD LSRII flow cytometer.

[2] = molecular target: butyrylcholinesterase (BChE) (Homo sapiens, UniProt P06276); settings: buffer with BChE, relative to buffer alone
Procedure: The drug release studies were conducted at 37° C. and free drug detection was quantified using an elution gradient profile at 277 nm.
Recombinant human butyrylcholinesterase (BChE) was obtained from R&D systems.

[3] = Serum stability of peptide macromonomers and polymers; assay type: in vitro ADME, human; settings: 37° C., 0 to 12 hours, MALDI-TOF MS
Procedure: The stability of the peptide (FKFL) linker in the presence of serum proteases was evaluated by incubating the peptide monomers and polymers in human serum and analyzing the degradation products over time. Peptide (40 mM, DMSO) or polymer (4 mM, PBS) was added to human serum to a final peptide/polymer concentration of 400 μM and incubated at 37° C. At various time points, 40 μL aliquots of the mixture were withdraw and 40 μL of acetonitrile was added to precipitate serum proteins and halt protease degradation. Precipitated solutions were centrifuged at 13,000 rpm for 10 min and supernatants were analyzed by MALDI-TOF MS using a Bruker Autoflex II.

[4] = human serum, 37° C., at 120 h
Procedure: The drug release studies were conducted at 37° C. and free drug detection was quantified using an elution gradient profile at 277 nm. The studies were conducted with deprotected monomers and polymers.
HPLC was used to quantify drug release by detecting free drug as a function of time normalized to amount of drug present during initial incubation. This in turn was standardized to the total available drug in the system as quantified by dissolving a known amount of polymer in 10% aq. H2SO4 for 48 h at 25° C. Using a Cipro standard curve, the total amount of drug in the polymers was validated against compositional values obtained from ^19F NMR. […]
Absorbance Detector, and Agilent ChemStation software for LC system (Palo Alto, Calif.). […]
Both non-serum (mobile phase:deionized water) and serum standards were subsequently treated with 50% acetonitrile (v/v) to promote protein precipitation. […] Non-serum standards were analysed without the need for centrifugation. […]
The drug release from polymer conjugates was carried out in serum at 37° C. at a polymer concentration of 6 mg/mL. […] Quantification of total Cipro in the polymer conjugates was measured by taking 6 mg/mL of polymer and dissolving it in 10% aq. […] The HPLC with a gradient elution profile was used to quantify amount of drug released using the same instrument parameters set forth for drug standards. […]

Chain of butyrylcholinesterase (BChE) (P06276 29-602): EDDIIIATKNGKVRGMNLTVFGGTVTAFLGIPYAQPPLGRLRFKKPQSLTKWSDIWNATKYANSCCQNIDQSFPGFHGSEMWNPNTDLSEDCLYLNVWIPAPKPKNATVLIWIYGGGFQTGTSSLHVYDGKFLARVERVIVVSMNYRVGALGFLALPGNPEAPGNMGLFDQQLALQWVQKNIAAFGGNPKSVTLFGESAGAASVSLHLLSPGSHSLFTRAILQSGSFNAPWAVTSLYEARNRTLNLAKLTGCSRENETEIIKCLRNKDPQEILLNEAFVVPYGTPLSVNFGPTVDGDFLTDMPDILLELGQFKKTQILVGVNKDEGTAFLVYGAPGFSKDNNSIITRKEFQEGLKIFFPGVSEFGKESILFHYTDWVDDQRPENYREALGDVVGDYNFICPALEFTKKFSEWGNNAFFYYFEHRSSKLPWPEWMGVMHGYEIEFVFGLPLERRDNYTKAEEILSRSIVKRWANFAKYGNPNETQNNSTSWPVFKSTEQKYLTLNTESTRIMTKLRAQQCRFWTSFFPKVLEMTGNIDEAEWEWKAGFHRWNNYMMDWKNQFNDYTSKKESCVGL

Compound | cathepsin B cleavage of FKFL linker and peptide release (Human liver cathepsin B) | caspase 3/7 activity relative to untreated cells (caspase 3/7) | cells staining positive for annexin V [1] [%] | effect of added BChE on ester hydrolysis [2] | also measured
poly[(DEAEMA)-co-(BMA)]-b-[(PEGMA300)-c-(MaAhxFKFLAhxBIM)] [PolBIM] | release the desired (2980 Da) peptide product | more than 8 fold | 87 |  | 
ciprofloxacin-(phenol)methacrylate [CPM] |  |  |  | increases hydrolysis | 
C=C(C)C(=O)NCCCCCC(=O)N[C@@H](Cc1ccccc1)C(=O)N[C@@H](CCCCN)C(=O)N[C@@H](Cc1ccccc1)C(=O)N[C@@H](CC(C)C)C(=O)NCCCCCC(=O)N[C@@H](CC(C)C)C(=O)N[C@@H](CCCNC(=N)N)C(=O)N[C@@H](CCSC)C(=O)N[C@@H](CCCNC(=N)N)C(=O)N[C@@H](CCC(=O)O)C(=O)N[C@H](C(=O)N[C@H](C(=O)N[C@@H](CC(=O)O)C(=O)N[C@@H](C)C(=O)N[C@@H](Cc1ccc(O)cc1)C(=O)N[C@@H](CCC(=O)O)C(=O)N[C@@H](CCCNC(=N)N)C(=O)N[C@@H](CCC(N)=O)C(=O)N[C@@H](Cc1ccccc1)C(=O)NCC(=O)N[C@@H](CCC(=O)O)C(=O)N1CCC[C@H]1C(=O)N[C@@H](CC(N)=O)C(=O)N[C@H](C(=O)N[C@@H](Cc1c[nH]c2ccccc12)C(=O)N[C@@H](C)C(N)=O)[C@@H](C)CC)[C@@H](C)CC)[C@@H](C)CC [MaAhxFKFLAhxScrBIM] ({Methacryloyl-Ahx}-FKFL[Ahx]LRMREIIDAYERQFGEPNIWA-NH2) |  |  |  |  | cleavage at the FKFL linker (Human liver cathepsin B; by 20 minutes): 100%; stability of the FKFL linker in human serum [3]: intact peptide monomer (3437 Da) was detectable after 12 hours
C=C(C)C(=O)OCCOC(=O)c1cn(C2CC2)c2cc(N3CCN(C(=O)OC(C)(C)C)CC3)c(F)cc2c1=O [HBC, (hydroxyethyl)methacrylate-boc-ciprofloxacin] |  |  |  | increases hydrolysis | drug release [4]: ~50%
poly[(DEAEMA)-co-(BMA)]-b-[(PEGMA300)-c-(MaAhxFKFLAhxScrBIM)] [PolScrBIM] | release the desired (2980 Da) peptide product | no change | 15 |  | 

Source: patent publication US10709791B2, “Stabilized polymeric carriers for therapeutic agent delivery” (University of Washington, priority 2014, dated 2020)
